According to patent US20220288130A1, “COMPOSITIONS AND METHODS FOR DIAGNOSIS AND TREATMENT OF METABOLIC DISEASES AND DISORDERS” (University of Louisville Research Foundation, Inc., priority 2019, published 2022):

Legend:
[1] = test system: mouse hepatocytes (FL83B cells); assay: Glucose uptake assay (Glucose Uptake-Glo); type: cell-based; settings: two-log difference in PC (34:2) concentration
Protocol: Glucose uptake assay. Glucose uptake was performed using the Glucose Uptake-Glo™ Assay from Promega (J1341) in accordance with the manufacturer's instructions. Briefly, 2×10^4 cells were seeded into 96 well tissue culture plate in complete medium. […] Cells were treated with 1 nM of insulin for an additional 1 hour. Medium was removed and cells were washed twice with PBS. 50 μof 2-deoxyglucose (DG, 1 mM per well) was added and incubated for 1 hour at room temperature (RT). 25 μl of stop buffer added and mixed briefly, then 25 μl of neutralization buffer added and shaken briefly. 100 μl of 2DG6P detection reagent was added and the mixture shaken for 3 hours at RT. Luminescence was recorded with 135 gain efficiency using a SYNERGY H1 (BioTek Instruments, Inc., Winooski, Vt.) luminometer. […] These supernatants (0.5 ml) were further used in hepatocyte (cultured with 0.5×10^6 fecal exosomes) cultures to determine the which cytokines were induced by fecal exosome treatment of macrophages.

AhR in FL83B cells = assay: AhR and pAhR expression in hepatocytes (western blot); type: cell-based, mouse
Protocol: Cells. Murine hepatocytes (FL83B) and human hepatocytes (HepG2) (obtained from the American Type Culture Collection, ATCC®, Manassas, Va.) were grown in tissue culture plates with F12K medium (Thermo Fisher Scientific,) supplemented with 10% heat-inactivated fetal bovine serum (FBS), 100 U ml-1 penicillin, and […] streptomycin at 37° C. in a 5% CO2 atmosphere. Human monocytes (U937) were grown in RPMI 1640 medium (Thermo Fisher Scientific, Waltham, Mass.) supplemented with 10% FBS. For fecal exosomes (with or without PKH26 labeling) treatment for FL83B and HepG2 cells, 2×10^4 cells were seeded into six well plates. After achieving 50-60% confluence, fecal exosomes (numbers indicated in Figures) were added and incubated for 16 hours at 37° C. in a 5% CO2 atmosphere. Cells were washed with PBS and processed for imaging, RNA isolation, and protein extraction. […]
Western blot analysis. […] Protein concentrations were determined using the BioRad Protein Assay Reagent. […] Individual protein was detected with specific antibodies and visualized by infrared fluorescent secondary antibodies (Table 2). The protein bands were visualized and analyzed on an Odyssey CLx Imager (LiCor Inc, Lincoln, Nebr.).

## phosphatidylcholine [PC (34:2)]
[1]
  glucose uptake, dose dependence: inhibited in a PC-dose dependent manner
AhR in FL83B cells
  AhR expression in hepatocytes: confirmed in a PC-dose dependent manner
